Consider five compounds from article PMC6798786 (Brain Communications, 2019).

Read-outs that look alike come from different tables or passages of the source.

The target of one data set is Adrenergic alpha1B. As to conditions: known drugs of Table 1; reference not given; cited from earlier work.
The target in data set [1] is Norepinephrine transporter. As to conditions: known drugs of Table 1; reference not given; cited from earlier work.
The target in another data set is 5-HT7. As to conditions: known drugs of Table 1; reference not given; cited from earlier work.
For another data set, the target named is Dopamine transporter. As to conditions: known drugs of Table 1; reference not given; cited from earlier work.
A further data set has as its target DOPAMINE D5. As to conditions: read-out: Ki DOPAMINE D5; known drugs of Table 1; reference not given; cited from earlier work.
Another data set deals with Adrenergic alpha2A. As to conditions: read-out: Ki Adrenergic alpha2A; known drugs of Table 1; reference not given; cited from earlier work.
For another data set, the target named is Adrenergic alpha1A. As to conditions: read-out: Ki Adrenergic alpha1A; known drugs of Table 1; reference not given; cited from earlier work.
The target in the next data set is 5-HT1A. As to conditions: known drugs of Table 1; reference not given; cited from earlier work.
The next data set deals with 5-HT transporter. As to conditions: known drugs of Table 1; reference not given; cited from earlier work.
In another data set the target is Adrenergic beta1. As to conditions: read-out: Ki Adrenergic beta1; known drugs of Table 1; reference not given; cited from earlier work.
A further data set has as its target Adrenergic alpha2C. As to conditions: read-out: Ki Adrenergic alpha2C; known drugs of Table 1; reference not given; cited from earlier work.
Another data set deals with Histamine H2. As to conditions: known drugs of Table 1; reference not given; cited from earlier work.
The next data set concerns the target 5-HT5. As to conditions: known drugs of Table 1; reference not given; cited from earlier work.
The next data set concerns the target 5-HT6. As to conditions: known drugs of Table 1; reference not given; cited from earlier work.
The target of a further data set is DOPAMINE D2. As to conditions: known drugs of Table 1; reference not given; cited from earlier work.
In another data set the target is DOPAMINE D1. As to conditions: read-out: Ki DOPAMINE D1; known drugs of Table 1; reference not given; cited from earlier work.
In a further data set the target is Adrenergic alpha2B. As to conditions: read-out: Ki Adrenergic alpha2B; known drugs of Table 1; reference not given; cited from earlier work.
The target in a further data set is Adrenergic beta2. As to conditions: read-out: Ki Adrenergic beta2; known drugs of Table 1; reference not given; cited from earlier work.
In another data set the target is DOPAMINE D4. As to conditions: read-out: Ki DOPAMINE D4; known drugs of Table 1; reference not given; cited from earlier work.
The test system of data set [2] is scn1lab mutant zebrafish. As to the kind of experiment: local field potential (LFP) electrophysiology, electrographic seizure events. It is filed as in vivo, Danio rerio. As to conditions: 250 µM; 10 min recording epoch. The method, then:
Using a glass micro-electrode positioned under an upright microscope, local field potential (LFP) recordings were obtained from forebrain or optic tectum structures, as described ([Baraban et al., 2005]). Agarose-embedded LFP recording sessions (10 min in duration) were obtained using Axoclamp software (Molecular Devices; Sunnyvale, CA, USA) and sampled at 1 kHz. Epileptiform events were identified post hoc. These were classified as multi-spike or poly-spike upward or downward membrane deflections greater than 3× baseline noise level and 150–250 ms in duration (interictal-like) or greater than 5× baseline noise, multi-spike and >500 ms in duration (ictal-like); both events were counted using threshold detection settings in Clampfit (Molecular Devices; Sunnyvale, CA, USA). Agarose-embedded larvae were continuously monitored for blood flow and heart rate using an Axiocam digital camera at video frame rate.
Monitoring electrographic brain activity to confirm seizure suppression is an essential assay to eliminate false positives from behavioural testing ([Griffin et al., 2018]). By placing a micro-electrode into a visually identified brain region of an agar-immobilized zebrafish larval, stable LFP recordings can be monitored for several hours ([Baraban, 2013]). At 5 days post-fertilization, LFP recordings of scn1Lab zebrafish larvae show an average of 250 abnormal electrographic seizure events during a 10 min recording epoch.

Data set [3] concerns the target T1, human 5-HT2BR (Homo sapiens, UniProt P41595).
The next data set deals with 5-HT1F. As to conditions: known drugs of Table 1; reference not given; cited from earlier work.
Data set [4] deals with scn1lab mutant zebrafish. As to the kind of experiment: locomotion (mean swim velocity) seizure-like behaviour assay in scn1lab mutant zebrafish larvae. Format: in vivo, Danio rerio. As to conditions: for change in vivo at 100 µM / change in vivo at 250 µM: Danio rerio. The essentials:
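Scn1lab mutant larvae at 5 dpf, one per well in embryo media, acclimated 20 min at room temperature, then tracked 10 min for distance travelled and mean velocity. A ≥40% change in mean swim velocity counted as significant. Toxicity (heartbeat, touch escape response) checked after 90 min drug exposure.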

For data set [5], the target named is T2, human 5-HT2CR (Homo sapiens, UniProt P28335).
T2 sequence (P28335 33-458): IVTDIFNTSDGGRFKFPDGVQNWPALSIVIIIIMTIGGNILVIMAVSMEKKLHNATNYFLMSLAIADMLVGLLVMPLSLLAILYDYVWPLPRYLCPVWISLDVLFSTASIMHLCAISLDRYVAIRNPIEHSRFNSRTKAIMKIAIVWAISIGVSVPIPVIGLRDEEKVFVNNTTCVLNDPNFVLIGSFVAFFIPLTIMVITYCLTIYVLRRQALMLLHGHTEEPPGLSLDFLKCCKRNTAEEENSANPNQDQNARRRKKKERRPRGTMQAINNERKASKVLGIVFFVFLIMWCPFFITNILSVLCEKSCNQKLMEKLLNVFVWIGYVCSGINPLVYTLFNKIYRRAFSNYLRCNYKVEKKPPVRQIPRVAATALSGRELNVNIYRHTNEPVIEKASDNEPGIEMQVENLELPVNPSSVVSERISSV

For the next data set, the target named is 5-HT1E. As to conditions: known drugs of Table 1; reference not given; cited from earlier work.
In another data set the target is 5-HT1B. As to conditions: known drugs of Table 1; reference not given; cited from earlier work.
The target in a further data set is 5-HT1D. As to conditions: known drugs of Table 1; reference not given; cited from earlier work.
The conditions of data set [6]: use as anorectic; ref Abenhaim et al., 1996; Khan et al., 1998; cited from earlier work.
Data set [7] deals with scn1lab mutant zebrafish. On the set-up: method as in Dinday and Baraban, 2015; Sourbron et al., 2016. As to conditions: ref Dinday and Baraban, 2015; Sourbron et al., 2016; cited from earlier work.
A short description of data set [8]: dissolution of compound at screening concentration. As to conditions: 250 µM.
Excerpt: Ten millimolars of compound stock solutions were made in dimethyl sulfoxide and then diluted in embryo medium for assays.
For data set [9], the target named is T3, human H1 (Homo sapiens, UniProt P35367). As to the kind of experiment: radioligand binding (NIMH PDSP). As to conditions: read-out: Ki H1. How it is done:
(§1) All in vitro binding assay and Ki data studies were performed by the US National Institute of Mental Health Psychoactive Drug Screening Program (NIMH PDSP). For these studies, drugs were screened against recombinant, stably expressed human 5-HT2AR, 5-HT2BR, 5-HT2CR and H1, as described at https://pdspdb.unc.edu/pdspWeb/ ([Besnard et al., 2012]).

Data set [10] deals with T4, human 5-HT2AR (Homo sapiens, UniProt P28223). Kind of data set: radioligand binding (NIMH PDSP). How it is done:
as §1

Data set [11] concerns the target T1, human 5-HT2BR. As to the kind of experiment: radioligand binding (NIMH PDSP). As to conditions: read-out: Ki 5-HT2BR. The method, then: as §1
The target in data set [12] is T2, human 5-HT2CR. As to the kind of experiment: radioligand binding (NIMH PDSP). How it is done: as §1
A further data set concerns the target Histamine H3. As to conditions: known drugs of Table 1; reference not given; cited from earlier work.
Data set [13] has as its target T3, human H1. As to conditions: known drugs of Table 1; reference not given; read-out: Ki Histamine H1, Table 1 known drugs; cited from earlier work.
For data set [14], the target named is T4, human 5-HT2AR. As to conditions: known drugs of Table 1; reference not given; read-out: Ki 5-HT2A, Table 1 known drugs; cited from earlier work.
Where [15] appears, read: read-out: % change in velocity, individual larva 1 (heat map).
The mark [16] stands for this setting: read-out: % change in velocity, individual larva 2 (heat map).
[17] abbreviates: read-out: % change in velocity, individual larva 3 (heat map).
The mark [18] stands for this setting: read-out: % change in velocity, individual larva 4 (heat map).
[19] abbreviates: read-out: % change in velocity, individual larva 5 (heat map).
[20] abbreviates: read-out: % change in velocity, individual larva 6 (heat map).
The mark [21] stands for this setting: read-out: mean velocity change from six fish, Trial 1.

T1 sequence (P41595 whole entry): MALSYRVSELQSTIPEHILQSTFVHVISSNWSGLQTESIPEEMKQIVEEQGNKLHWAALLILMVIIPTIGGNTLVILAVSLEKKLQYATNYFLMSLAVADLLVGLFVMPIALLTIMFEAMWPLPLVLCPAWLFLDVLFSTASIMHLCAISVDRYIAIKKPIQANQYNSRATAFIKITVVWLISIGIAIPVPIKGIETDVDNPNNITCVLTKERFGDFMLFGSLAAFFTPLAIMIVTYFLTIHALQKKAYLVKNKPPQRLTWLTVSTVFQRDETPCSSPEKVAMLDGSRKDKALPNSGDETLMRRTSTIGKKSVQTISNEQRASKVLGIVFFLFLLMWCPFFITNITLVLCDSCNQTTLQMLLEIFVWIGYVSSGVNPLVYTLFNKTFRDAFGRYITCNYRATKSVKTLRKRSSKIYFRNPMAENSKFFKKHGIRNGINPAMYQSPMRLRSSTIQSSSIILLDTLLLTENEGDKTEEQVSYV
T4 sequence (P28223 whole entry): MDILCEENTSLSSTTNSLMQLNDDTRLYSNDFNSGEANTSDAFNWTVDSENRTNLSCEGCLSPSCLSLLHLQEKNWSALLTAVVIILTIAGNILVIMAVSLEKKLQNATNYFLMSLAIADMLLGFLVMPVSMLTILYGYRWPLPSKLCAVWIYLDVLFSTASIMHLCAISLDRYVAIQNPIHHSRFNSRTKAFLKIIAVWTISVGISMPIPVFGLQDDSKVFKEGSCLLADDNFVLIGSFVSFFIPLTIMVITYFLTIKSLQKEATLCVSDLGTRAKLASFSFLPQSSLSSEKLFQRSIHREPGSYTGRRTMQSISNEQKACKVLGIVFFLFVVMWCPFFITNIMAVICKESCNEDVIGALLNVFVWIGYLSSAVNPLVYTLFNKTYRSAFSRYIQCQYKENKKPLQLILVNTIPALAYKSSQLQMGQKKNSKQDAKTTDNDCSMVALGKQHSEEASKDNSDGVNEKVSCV
T3 sequence (P35367 whole entry): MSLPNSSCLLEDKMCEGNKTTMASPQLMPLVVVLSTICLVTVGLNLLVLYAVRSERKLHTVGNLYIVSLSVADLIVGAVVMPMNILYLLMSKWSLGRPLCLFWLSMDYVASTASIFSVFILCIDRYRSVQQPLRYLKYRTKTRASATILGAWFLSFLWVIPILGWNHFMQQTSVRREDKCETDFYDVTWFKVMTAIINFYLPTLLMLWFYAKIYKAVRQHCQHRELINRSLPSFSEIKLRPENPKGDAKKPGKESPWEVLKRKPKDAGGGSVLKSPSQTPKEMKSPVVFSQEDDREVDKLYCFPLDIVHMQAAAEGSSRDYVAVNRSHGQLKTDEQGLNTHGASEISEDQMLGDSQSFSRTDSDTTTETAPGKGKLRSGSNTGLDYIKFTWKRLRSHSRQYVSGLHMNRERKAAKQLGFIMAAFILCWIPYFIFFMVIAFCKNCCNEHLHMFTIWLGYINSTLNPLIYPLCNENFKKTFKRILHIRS

Broadly, the Ki is the equilibrium dissociation constant of an inhibitor or competing ligand from its target. With `C[C@H]1CNCCc2ccc(Cl)cc21` [lorcaserin], the Ki is more than 10000 nM on Adrenergic alpha1B; 1400 nM in data set [1]; 636 nM on 5-HT7; more than 10000 nM on Dopamine transporter; more than 10000 nM at DOPAMINE D5; more than 10000 nM on Adrenergic alpha2A. The Ki at Adrenergic alpha1A was more than 10000 nM; on 5-HT1A, 700 nM; at 5-HT transporter it was 990 nM; at Adrenergic beta1, more than 10000 nM; at Adrenergic alpha2C it was more than 10000 nM; on Histamine H2, more than 10000 nM. For the same compound, the Ki on 5-HT5 was 3710 nM; on 5-HT6, 1980 nM; at DOPAMINE D2 it was more than 10000 nM; on DOPAMINE D1, more than 10000 nM; at Adrenergic alpha2B, more than 10000 nM; on Adrenergic beta2, more than 10000 nM. In addition, the inhibition constant (Ki) at DOPAMINE D4 is more than 10000 nM.

With `CC[C@@H](CO)NC(=O)[C@@H]1C=C2c3cccc4[nH]cc(c34)C[C@H]2N(C)C1` [methylergonovine], the “effect on frequency of electrographic seizure events (LFP)” value in the data set with scn1lab mutant zebrafish [2] was “significantly suppressed the frequency of electrographic seizure events”. The Ki on human 5-HT2BR [3] (read-out: Ki 5-HT2B, Table 1 known drugs; known drugs of Table 1; reference not given; cited from earlier work) is 2.2 nM; on 5-HT1F, 31 nM; at human 5-HT2CR [5] (read-out: Ki 5-HT2C, Table 1 known drugs; known drugs of Table 1; reference not given; cited from earlier work), 4.6 nM; on 5-HT1E it was 89.1 nM. Also, the “effect on seizure-like swim behaviour, commercially available compounds” value with scn1lab mutant zebrafish [4] (three concentrations, 30 and 90 min exposure) is reported as “suppressed convulsive swim behaviours in a concentration-dependent manner”.

With `CCNC(C)Cc1cccc(C(F)(F)F)c1` (stereo not drawn) [fenfluramine], the Ki at Adrenergic alpha1B was 142 nM; on 5-HT1B, 1840 nM; on 5-HT7, 7310 nM; on 5-HT1D, 1260 nM; at 5-HT6 it was 9080 nM. Besides, in data set [6], the “patients with heart valve defects” value is on record as approximately 25%. In addition, in the data set on scn1lab mutant zebrafish [7], the “suppression of spontaneous seizures in scn1lab zebrafish (earlier work)” value was “effective in suppressing spontaneous seizures”.

For the compound `CC(C)(C)OC(=O)N1CCN(Cc2nc3ccccc3n2Cc2ccc(Cl)cc2)CC1` [Compound 25], the “going into solution at screening concentration” value in data set [8] is “failed to go into solution”. In addition, the Ki was determined as 76 nM at human H1 [9], 2380 nM at human 5-HT2AR [10], 482 nM on human 5-HT2BR [11] and 2260 nM at human 5-HT2CR [12]. In addition, the change in vivo at 100 µM in the data set on scn1lab mutant zebrafish [4] (setting [15]) was -56%; in the data set on scn1lab mutant zebrafish [4] (setting [16]) it was 91.3%; in the data set on scn1lab mutant zebrafish [4] (setting [17]) it was -65.8%; in the data set with scn1lab mutant zebrafish [4] (setting [18]) it was 78.7%; in the data set with scn1lab mutant zebrafish [4] (setting [19]) it was 35.7%; in the data set on scn1lab mutant zebrafish [4] (setting [20]), 153%. The change in vivo at 100 µM in the data set with scn1lab mutant zebrafish [4] (setting [21]) was 42%; in the data set on scn1lab mutant zebrafish [4] (read-out: mean velocity change from six fish, Trial 2), 42%. Besides, the change in vivo at 250 µM in the data set on scn1lab mutant zebrafish [4] (setting [15]) is -87%; in the data set on scn1lab mutant zebrafish [4] (setting [16]), -92.4%; with scn1lab mutant zebrafish [4] (setting [17]), -76.5%; in the data set on scn1lab mutant zebrafish [4] (setting [18]), -56.9%; with scn1lab mutant zebrafish [4] (setting [19]) it was -100%; in the data set with scn1lab mutant zebrafish [4] (setting [20]) it was -23.6%. Further, the change in vivo at 250 µM with scn1lab mutant zebrafish [4] (setting [21]) was -82.5%.

As for `Clc1ccc(Cn2c(CN3CCCC3)nc3ccccc32)cc1` [clemizole], the Ki is more than 10000 nM in data set [1]; more than 10000 nM on 5-HT1B; 25 nM on human 5-HT2BR [3] (known drugs of Table 1; reference not given; read-out: Ki 5-HT2B, Table 1 known drugs; cited from earlier work); more than 10000 nM at 5-HT7; more than 10000 nM at 5-HT1A; 402 nM on Histamine H3. The Ki was more than 10000 nM at 5-HT1D; more than 10000 nM on 5-HT6; 197 nM on human 5-HT2CR [5] (known drugs of Table 1; reference not given; read-out: Ki 5-HT2C, Table 1 known drugs; cited from earlier work); 1.3 nM at human H1 [13]; 239 nM on human 5-HT2AR [14].
